Data on ten compounds can be found in ChEMBL document CHEMBL1201862, “PubChem BioAssay data set” (2004).

Assay [1] has as its target T1, Apoptotic protease-activating factor 1 (Homo sapiens, UniProt O14727).
T1 sequence (O14727 whole entry): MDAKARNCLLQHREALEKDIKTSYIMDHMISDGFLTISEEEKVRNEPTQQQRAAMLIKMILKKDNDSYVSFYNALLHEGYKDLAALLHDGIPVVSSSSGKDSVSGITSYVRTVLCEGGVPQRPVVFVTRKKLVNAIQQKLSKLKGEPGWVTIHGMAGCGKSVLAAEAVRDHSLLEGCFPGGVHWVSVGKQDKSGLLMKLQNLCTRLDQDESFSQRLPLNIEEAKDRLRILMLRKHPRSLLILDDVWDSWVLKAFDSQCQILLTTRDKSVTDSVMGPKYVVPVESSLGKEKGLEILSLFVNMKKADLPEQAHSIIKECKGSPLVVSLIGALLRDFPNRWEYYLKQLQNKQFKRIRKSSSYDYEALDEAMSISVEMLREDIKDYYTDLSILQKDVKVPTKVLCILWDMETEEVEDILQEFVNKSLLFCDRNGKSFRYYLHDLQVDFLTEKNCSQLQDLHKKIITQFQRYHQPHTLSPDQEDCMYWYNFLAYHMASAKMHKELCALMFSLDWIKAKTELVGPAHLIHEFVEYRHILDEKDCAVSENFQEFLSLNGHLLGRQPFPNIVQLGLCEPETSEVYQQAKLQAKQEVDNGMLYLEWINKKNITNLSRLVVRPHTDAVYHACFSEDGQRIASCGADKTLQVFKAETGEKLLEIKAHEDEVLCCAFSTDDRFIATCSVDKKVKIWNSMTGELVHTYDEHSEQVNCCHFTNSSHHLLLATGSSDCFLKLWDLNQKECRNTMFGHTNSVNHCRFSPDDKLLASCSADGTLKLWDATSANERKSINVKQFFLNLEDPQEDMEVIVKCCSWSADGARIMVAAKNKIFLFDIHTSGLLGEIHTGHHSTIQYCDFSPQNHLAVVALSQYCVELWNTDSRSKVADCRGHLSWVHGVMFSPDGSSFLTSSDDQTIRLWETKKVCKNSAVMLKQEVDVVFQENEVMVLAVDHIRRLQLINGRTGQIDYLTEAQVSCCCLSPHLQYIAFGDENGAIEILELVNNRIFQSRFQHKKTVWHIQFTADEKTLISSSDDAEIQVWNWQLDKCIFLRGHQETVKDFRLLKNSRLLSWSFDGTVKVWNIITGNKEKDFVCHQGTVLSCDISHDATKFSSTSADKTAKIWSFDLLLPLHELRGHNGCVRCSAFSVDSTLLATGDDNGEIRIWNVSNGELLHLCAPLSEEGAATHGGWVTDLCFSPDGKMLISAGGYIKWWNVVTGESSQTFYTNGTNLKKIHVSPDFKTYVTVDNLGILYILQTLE
The format is functional.

Assay [2] is described as follows: HEK-293T viability loss after treatment – luminescence, T-cell screen hits, cytotoxicity control for TCR NF-kB inhibitor project, dose response (AID 489026).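 Also: cells exposed to compound about 14 hours before the viability readout.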 The format is functional, cell-based.
Assay [3] has as its system H4. The assay is described as follows: Inhibitors of Prion Protein 5' UTR mRNA Measured in Cell-Based System Using Plate Reader - 2078-01_Inhibitor_Dose_DryPowder_Activity. [Related pubchem assays (depositor defined):AID488894]. Format: functional. The settings on record: Homo sapiens.
A short description of assay [4]: NIH-3T3 fibroblast cytotoxicity, dose response, cytotoxicity control, cell-based, fluorescence, Alamar Blue, secondary assay (AID 2327).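 Also: NIH-3T3 mouse fibroblasts cultured with fluconazole at 8 µg/mL.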 The format is functional.
Assay [5] is described as follows: luciferase reporter signal suppression in cells – H4 neuroglioma cells, luminescence, dose response (AID 1990). The format is functional, cell-based.
A short description of assay [6]: Luminescence Cell-Based Dose Response HTS to Identify Inhibitors of 5'UTR Stem-Loop Driven Prion Protein mRNA Translation in H4 Neuroglioblastoma Cells. [Related pubchem assays: 1827 (Project Summary), 1813 (Primary HTS)]. Format: functional.
Assay [7] is described as follows: alpha-synuclein stem-loop luciferase translation blockers – H4 neuroglioma cells, luminescence, confirmation (AID 1988). The format is functional, cell-based.
The nature of assay [8]: fluconazole-exposed Candida albicans growth modulators – fluorescence, retest, confirmation (AID 2467). The format is functional, cell-based.
For assay [9], the target named is T2, Serine/threonine-protein phosphatase (Candida dubliniensis (strain CD36 / CBS 7987 / NCPF 3949 / NRRLY-17841) (Yeast), UniProt B9W6M3).
T2 sequence (B9W6M3 whole entry): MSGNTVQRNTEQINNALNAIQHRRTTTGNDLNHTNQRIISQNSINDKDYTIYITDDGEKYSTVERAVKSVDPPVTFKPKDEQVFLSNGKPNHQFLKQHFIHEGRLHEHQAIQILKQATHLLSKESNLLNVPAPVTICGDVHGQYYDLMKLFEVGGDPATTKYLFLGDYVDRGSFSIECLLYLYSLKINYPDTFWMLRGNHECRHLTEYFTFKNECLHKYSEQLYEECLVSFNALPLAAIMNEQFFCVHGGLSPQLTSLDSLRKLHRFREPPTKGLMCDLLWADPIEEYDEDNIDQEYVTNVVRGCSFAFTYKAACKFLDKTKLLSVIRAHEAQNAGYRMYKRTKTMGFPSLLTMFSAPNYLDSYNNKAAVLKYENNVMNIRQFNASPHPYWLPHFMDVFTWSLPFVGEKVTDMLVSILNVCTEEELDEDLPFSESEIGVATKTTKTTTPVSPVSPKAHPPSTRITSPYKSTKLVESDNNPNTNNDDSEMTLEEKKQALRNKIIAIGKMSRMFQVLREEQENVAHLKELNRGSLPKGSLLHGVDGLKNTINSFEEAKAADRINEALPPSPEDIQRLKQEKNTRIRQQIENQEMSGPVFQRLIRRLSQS
The assay is described as follows: blockers of CaCl2-induced CDRE-lacZ signaling – S. cerevisiae, luminescence, secondary, dose response (AID 2388).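 Also: yeast reporter cells carrying a calcineurin-responsive lacZ construct stimulated with calcium chloride; luminescent beta-galactosidase reporter signal in whole cells rather than isolated phosphatase activity; potency for inhibition where a drop in reporter signal means calcineurin blockade.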 The format is functional, cell-based.

Assay [10] has as its target T3, Ubiquitin-conjugating enzyme E2 N (Homo sapiens, UniProt P61088).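 Also: Dose-response confirmation in a TR-FRET assay detecting UBC13-driven polyubiquitin chain formation, inhibition measured.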
T3 sequence (P61088 whole entry): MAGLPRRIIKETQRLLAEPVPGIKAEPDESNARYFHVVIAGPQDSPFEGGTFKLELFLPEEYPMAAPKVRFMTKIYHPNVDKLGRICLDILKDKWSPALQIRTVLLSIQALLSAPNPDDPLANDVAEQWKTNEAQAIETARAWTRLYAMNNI
Format: functional.

Assay [11] deals with Vero. Put plainly: cells. The format is functional, cell-based. The conditions noted are these: Chlorocebus sabaeus.
Assay [12] concerns Vero. Put plainly: cells. Format: functional. The settings on record: Chlorocebus sabaeus.
Assay [13] addresses ATP-dependent molecular chaperone HSP82 (Candida albicans (strain WO-1) (Yeast), UniProt C4YTQ8). The assay is described as follows: steroid-induced GRE reporter decrease in yeast – S. cerevisiae, luminescence, Hsp90 inhibitor project, dose response (AID 2400).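 Also: beta-galactosidase luminescence from glucocorticoid response element reporter as proxy for Hsp90 function; inhibitor potency where signal loss means Hsp90 inhibition.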 Format: functional, cell-based.
Another assay deals with P388/ADR. Put plainly: cells. The settings on record: Mus musculus. The format is functional.
The next assay has as its system SN12K1. Put plainly: cells. The format is functional. The conditions noted are these: Homo sapiens.
The test system of another assay is P388. The assay is described as follows: cells. Format: functional. The settings on record: Mus musculus.
The target of assay [14] is T4, Sentrin-specific protease 8 (Homo sapiens, UniProt Q96LD8).
T4 sequence (Q96LD8 whole entry): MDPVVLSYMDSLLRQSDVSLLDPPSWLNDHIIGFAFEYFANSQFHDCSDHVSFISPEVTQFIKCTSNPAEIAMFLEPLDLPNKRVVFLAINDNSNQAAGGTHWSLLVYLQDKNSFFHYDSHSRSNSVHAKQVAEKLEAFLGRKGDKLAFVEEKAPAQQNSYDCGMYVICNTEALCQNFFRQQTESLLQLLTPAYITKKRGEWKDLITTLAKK
The format is functional.

In assay [15] the target is T4, Sentrin-specific protease 8. Format: functional. This is another data set of the same source.
The target of a further assay is T5, Caspase-6 (Homo sapiens, UniProt P55212).
T5 sequence (P55212 whole entry): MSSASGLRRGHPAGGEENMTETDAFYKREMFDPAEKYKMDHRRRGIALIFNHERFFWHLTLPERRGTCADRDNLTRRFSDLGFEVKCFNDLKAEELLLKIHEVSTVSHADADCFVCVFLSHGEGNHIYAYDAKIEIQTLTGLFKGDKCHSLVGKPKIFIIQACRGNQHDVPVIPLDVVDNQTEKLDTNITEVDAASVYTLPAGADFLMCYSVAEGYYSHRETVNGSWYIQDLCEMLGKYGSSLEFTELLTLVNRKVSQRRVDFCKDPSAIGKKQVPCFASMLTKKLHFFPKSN
The assay is described as follows: inhibition of CASP6 peptide cleavage – biochemical, VEID-R110 fluorescence, cherry-pick, dose response (AID 720632).

Assay [16] concerns the target T6, Endoribonuclease toxin MazF (Escherichia coli K-12, UniProt P0AE70).
T6 sequence (P0AE70 whole entry): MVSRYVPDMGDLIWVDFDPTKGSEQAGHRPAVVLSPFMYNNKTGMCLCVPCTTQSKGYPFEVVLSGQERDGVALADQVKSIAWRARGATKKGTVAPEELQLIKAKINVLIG
The assay is described as follows: activation of MazEF endoribonuclease cleavage – biochemical, fluorescence, single-stranded RNA substrate, uHTS hits, dose response (AID 588481). Format: functional.

Assay [17] deals with T6, Endoribonuclease toxin MazF. The assay is described as follows: substrate-only fluorescence increase artefacts – biochemical, single-stranded RNase substrate, counter-screen for MazEF activator project, dose response (AID 588502). The format is functional.
The nature of assay [18]: Luminescence Cell-Based Dose Confirmation HTS to Identify Activators of 5'UTR Stem-Loop Driven Alpha-Synuclein mRNA Translation in H4 Neuroglioblastoma Cells. [Related pubchem assays: 1829 (Project Summary), 1814 (Primary HTS)]. The format is functional.
Assay [19] in a line: Luminescence Cell-Based Dose Response HTS to Identify Activators of Luciferase Translation or Activity in H4 […] Cells. [Related pubchem assays: 1829 (Project Summary), 1814 (Primary HTS)]. The format is functional.
For assay [20], the system named is H4. The assay is described as follows: Luminescence Cell-Based Dose Response HTS to Identify Activators of 5'UTR Stem-Loop Driven Prion Protein mRNA Translation in H4 Neuroglioblastoma Cells. [Related pubchem assays: 1829 (Project Summary), 1814 (Primary HTS)]. Format: functional. The conditions noted are these: Homo sapiens.
Assay [21] concerns the target Dual specificity tyrosine-phosphorylation-regulated kinase 1A (Rattus norvegicus, UniProt Q63470). The format is biochemical, Homo sapiens.
Assay [22] is described as follows: viability of uninfected HEp-2 cells – cell-based, HTS, cytotoxicity control for RSV inhibitor project, dose response (AID 2410). The format is functional. The conditions noted are these: human respiratory syncytial virus.

Calls of active or inactive are those of the source.

Sequence of ATP-dependent molecular chaperone HSP82 (C4YTQ8 whole entry): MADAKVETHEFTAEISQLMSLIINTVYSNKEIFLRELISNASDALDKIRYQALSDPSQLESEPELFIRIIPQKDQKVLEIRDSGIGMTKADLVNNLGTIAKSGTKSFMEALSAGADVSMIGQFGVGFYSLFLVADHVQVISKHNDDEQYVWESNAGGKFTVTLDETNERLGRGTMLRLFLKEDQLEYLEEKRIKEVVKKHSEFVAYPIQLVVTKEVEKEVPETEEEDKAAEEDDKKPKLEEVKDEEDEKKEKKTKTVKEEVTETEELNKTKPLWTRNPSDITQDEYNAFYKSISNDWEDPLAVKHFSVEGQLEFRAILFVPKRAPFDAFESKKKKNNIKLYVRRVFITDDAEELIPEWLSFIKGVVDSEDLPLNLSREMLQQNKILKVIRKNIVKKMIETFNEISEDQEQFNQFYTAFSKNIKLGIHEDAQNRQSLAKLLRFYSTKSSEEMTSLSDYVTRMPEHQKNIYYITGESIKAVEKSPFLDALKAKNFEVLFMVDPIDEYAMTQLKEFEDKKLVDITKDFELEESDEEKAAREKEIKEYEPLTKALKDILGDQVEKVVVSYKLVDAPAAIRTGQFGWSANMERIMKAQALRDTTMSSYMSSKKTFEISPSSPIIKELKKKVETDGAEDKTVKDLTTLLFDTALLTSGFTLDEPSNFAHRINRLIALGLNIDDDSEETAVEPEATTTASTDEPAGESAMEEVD

Regarding `CC(C)N(Cc1cc2ccccc2nc1O)C(=O)C1CCCCC1`, the IC50 – broadly, the midpoint of a concentration-inhibition curve – in assay [1] was 13.6 µM (active).

In the case of `C=CCn1c(SCc2c(C)noc2C)nc2ccccc2c1=O`, the IC50 in [2] is > 80 µM (inactive). Moreover, the AC50 (as a rule, the concentration at which the activity in the assay is half-maximal) in the assay with H4 [3] is 0.574 µM (active).

`CCCOc1ccc(C(=O)NNC(=S)NC(C)=O)cc1`: the EC50 (in general, the concentration needed to bring the measured effect to its halfway point) was > 160 µM (inactive) in [4]; 14.2 µM (active) in assay [5]; 14.2 µM (active) in assay [6]; 9.77 µM (active) in assay [7]; 0.372 µM (active) in assay [8]; > 180 µM (inactive) in assay [9]. Further, the EC50 in assay [13] was > 160 µM (inactive). For the same compound, the values for the IC50 (in assay [10]; with Vero [11]) were > 20 µM (inactive) and 23.6 µM (active), respectively. Moreover, the half-maximal cytotoxic concentration (CC50) (in general, the concentration giving 50% cytotoxicity) with Vero [12] was > 25 µM (active).

Take `O=C(Nc1nnc(SCc2ccc(Cl)cc2)s1)c1cnccn1`: the EC50 is > 160 µM (inactive) in assay [4], 0.57 µM (active) in assay [8], > 180 µM (inactive) in assay [9] and 24.4 µM (active) in assay [13].

As to `Cn1c(=O)[nH]c2nncnc2c1=O`, the figures for the IC50 in assay [1], in assay [14] and in assay [15] were 15.4 µM (active), 1.62 µM (active) and 2.08 µM (active), respectively. Besides, the GI50 (usually the concentration that inhibits growth by half) in the assay with P388/ADR was 213 µM (inactive); in the assay on SN12K1, 65.8 µM (inactive); in the assay with P388, 25.8 µM (inactive). In addition, the AC50 on Caspase-6 is 7.06 µM (active).

As to `N#C/C(=C\c1cn(-c2ccccc2)nc1-c1cc2ccccc2o1)c1nc2ccccc2[nH]1`, the EC50 in assay [16] is > 99 µM (inactive); in assay [17] it was 7.03 µM (active).

`COc1cc(/C=C2/C(=O)N(C)C(=S)N2C)ccc1OCc1cccc(F)c1`: the EC50 was > 120 µM (not active) in assay [18]; > 120 µM (not active) in assay [19]; 4.24 µM (active) with H4 [20]; > 99 µM (inactive) in assay [16]; > 99 µM (inactive) in [17].

`c1cncc(-c2ccc3[nH]ccc3c2)c1`: the AC50 in [21] was 6.97 µM (active).

Take `c1cncc(-c2csc(-c3cccnc3)n2)c1`: the half-maximal activity concentration (AC50) in assay [21] was 0.676 µM (active).

`O=C(Cc1c[nH]c2ccccc12)Nc1nnc(C2CC2)s1`: the CC50 in [22] is 21.6 µM (active). Also, the IC50 in the assay on Vero [11] is 16.6 µM (active); in the assay “cells” it was 39.1 µM (active).
